# Entries after “also recorded” stand apart in the source; their conditions may differ.
# What was measured:
# HEK-293 cells = assay: Resazurin high throughput proliferation assay, HEK-293; assay type: cell-based, human; details: for effect on HEK-293 proliferation (RFU, resazurin): versus base medium with 1% FBS, each ligand at three concentrations
# Experimental: Resazurin is a metabolic dye which is converted to a fluorescent product. The greater the amount of the fluorescent product that is generated, the more metabolism, which directly correlates with cell number.
# In this assay, resazurin was added to HEK-293 cells plated in each well of a 24-well assay plate containing a test medium containing one of the 16 ligands corresponding to the positive growth factors/cytokines and incubated at 37° C. After a 30 minute incubation, the plate was analyzed on a standard fluorescence plate reader. A higher RFU value from the plate reader translates to a higher cell density in the wells.
# Briefly, the 16 ligands corresponding to positive growth factor/cytokine receptors were tested in the resazurin assay, each ligand at three different concentrations. The graphical representations of the RFU values observed for each factor, shown in FIGS. 3 and 4, include the base medium (with 1% FBS) shown as the pink line. The other 3 lines on each graph represent the three (3) concentrations of growth factor tested in the assay. […] Finally, some factors had no effect on the proliferation of the HEK-293 culture (FIG. 3A-3D).
# (§1) Cells were plated in each well of a 24-well tissue culture treated plate containing 1 ml of a base medium. The base medium contained the lowest amount of FBS required to maintain approximately half-maximal growth of the given cell type. Test conditions were performed in triplicate, with each test compound added to the base medium at three different concentrations. The cells were allowed to grow until they reached approximately 33% confluent. At this point, 100 μl of the resazurin solution from a resazurin based in vitro toxicology kit (Sigma-Aldrich Co., Product No. TOX-8) was added to each well. After sufficient incubation time to convert some of the resazurin, the fluorescence was measured on a HTS 7000 Plus BioAssay Reader (Perkin-Elmer, Boston, Mass.). Readings were taken once a day until the culture was confluent (typically about 4 days). A plate with base medium only (no cells) was used as a blank and subtracted from the RFU reading to establish the final RFU values.
# WI-38 cells = assay: Proliferation assay (resazurin), WI-38; assay type: cell-based, human; details: single factor added to base medium
# Description: In order to test the possibility of using the method as applied to HEK-293 cells to identify pathways in other cell lines, the normal human fibroblast, WI-38 was chosen. These cells are typically grown in a base medium containing anywhere from 3-10% FBS.
# Of the initial 17 receptors gleaned from the microarray, 12 ligands were chosen for testing. These ligands were chosen in the same way as the ligands for the HEK-293 cells, based on signal versus controls as well as based on knowledge of the various factors.
# Signaling within a cell for increased growth can be stimulated in a variety of different ways. Combinations of the 4 chosen factors as listed above we added to cell culture medium to determine if the addition of more than 1 of the positive ligands would produce an increased amount of proliferation, or if the ligands would all stimulate the same downstream pathways, leading to no added benefit. This method allowed for the formulation of cell culture medium that it had not been possible to formulate prior to these assays.
# as §1
# CHO-AP cells [1] = assay: Proliferation assay, CHO-AP; assay type: cell-based, Chinese hamster; details: suspension culture in serum-free CHO medium
# Experimental: (§2) In order to further test the possibility of using the method as applied to HEK-293 cells to identify pathways in other cell lines, Chinese hamster ovary (CHO) cells were run on a microarray. Cells from the CHO-AP line produce alkaline phosphatase (AP). These cells are grown in a suspension culture in a serum-free CHO medium (Sigma-Aldrich Co., Product No. C5467).
# Although the cDNA array from Takara is designed with human sequences, the array was probed using cDNA made from mRNA from the CHO cells. This attempt generated 22 positive receptors, of which 16 were tested (Table 6).
# as §1, with “The cells were allowed to grow until they reached approximately 33% confluent. At this point, 100 μl of the resazurin solution from a resazurin based in vitro toxicology kit (Sigma-Aldrich Co., Product No. TOX-8) was added to each well.” left out
# CHO-AP cells [2] = assay: Alkaline phosphatase production assay, CHO-AP; assay type: cell-based, Chinese hamster; details: suspension culture in serum-free CHO medium
# Experimental: as §2
# On day 7 of the assay, the contents of each well were collected into 1.5 ml microfuge tubes. The cell suspensions were centrifuged at 16,000 rpm for five minutes. The supernatants were collected in 2 ml cryovials and the cell pellets were discarded. Each supernatant was diluted 1:10 and then assayed for the presence of Alkaline Phosphatase using the Alkaline Phosphatase Reporter Gene Assay Kit, Fluorescence (Product AP-F).
Molecule,"effect on HEK-293 proliferation (RFU, resazurin) (HEK-293 cells)",effect on proliferation of WI-38 cells (RFU) (WI-38 cells),also measured
"CCCCC/C=C\C/C=C\C/C=C\C/C=C\CCCC(=O)O [arachidonic acid, reference compound]",,,"effect on proliferation of HEK-293 cells (PKC pathway stimulation, Example 4) (HEK-293 cells; FIG. 10): positive effect"
basic fibroblast growth factor [bFGF],significant effect,significant increased proliferation,effect on proliferation of WI-38 cells (RFU) (WI-38 cells; listed as basic fibroblast growth factor): positive effects
"epidermal growth factor [EGF, growth factor, ligand of EGF receptor]",significant effect,,
interleukin-1 [IL-1],,significant increased proliferation,effect on proliferation of WI-38 cells (RFU) (WI-38 cells; listed as interleukin-1): positive effects; effect on proliferation of CHO-AP cells (CHO-AP cells [1]): positive effects; productivity of alkaline phosphatase by CHO-AP cells (CHO-AP cells [2]): increased the productivity; also recorded: positive effects
platelet-derived growth factor [PDGF],,significant increased proliferation,effect on proliferation of WI-38 cells (RFU) (WI-38 cells; listed as platelet-derived growth factor AB): positive effects
stromal cell-derived factor 1a [SDF1α],significant effect,significant increased proliferation,effect on proliferation of WI-38 cells (RFU) (WI-38 cells; listed as stromal cell-derived factor 1 a): positive effects

# From patent publication US20040265880A1, “Genomic and proteomic approaches for the development of cell culture medium” (Sigma-Aldrich Co., priority 2003, published 2004)
